We go through two compounds from patent publication US10604476B2, “Fluorinated amide derivatives and their uses as therapeutic agents” (Trillium Therapeutics Inc., priority 2015, dated 2020).

In series [1] the test system is maximal electroshock seizure. Put plainly: Maximal Electroshock Seizure (MES) rat model. It counts as in vivo. As to conditions: po, 0.5 hour. The protocol: Male, Sprague-Dawley rats and CD-1 mice were used for all studies. All animals were allowed ad-lib access to food and water except during experiment. Animals were housed within an animal vivarium maintained under a 12 h light:dark cycle (lights on: 07:00 h), and all experiments were conducted in the animals light phase. For all experiments, animals were habituated to the vivarium for a minimum of 72 h before experimentation. The experimental procedures used in the present investigation were conducted under the Association for Assessment and Accreditation of Laboratory Animal Care (AAALAC) and the Canadian Council on Animal Care (CCAC) guidelines. All compounds were sonicated in 5% Tween 80® in saline or methylcellulose 0.5% (wgt/vol), using MC and sterile water and injected in a dose volume of 5 ml/kg or 10 ml/kg (rat), and 10 ml/kg (mouse). Drugs were administered by either the oral, intraperitoneal or intravenous route. Male Sprague-Dawley rats of body weight 80-100 g were used for these studies. Each experiment was conducted over 3 consecutive days. On day 1 and 2, each rat received a single electrical stimulus (150 mA, 0.2 s duration, 60 Hz) via corneal electrodes moistened with saline (Shock stimulator type 221: Harvard apparatus). […] Typically this reflected approximately 70-90% of the initial group. […] On the test day following a defined drug pretreatment period, rats received a maximal electroshock (150 mA, 0.2 s duration, 60 Hz) via corneal electrodes. Protection was defined as absence of a full tonic seizure within 10 s of stimulus delivery. Twenty minutes before the MES procedure, the animals were tested on a fixed speed rotorod (best score from 3 trials at 8 r.p.m, trial duration=60 s) to give an early assessment of drug effect on gross motor function.

Series [2] deals with gross motor function. Briefly: Fixed speed rotorod, rat (gross motor function). The following applies: Sprague-Dawley, in vivo, po. The protocol: On the test day following a defined drug pretreatment period, rats received a maximal electroshock (150 mA, 0.2 s duration, 60 Hz) via corneal electrodes. Protection was defined as absence of a full tonic seizure within 10 s of stimulus delivery. Twenty minutes before the MES procedure, the animals were tested on a fixed speed rotorod (best score from 3 trials at 8 r.p.m, trial duration=60 s) to give an early assessment of drug effect on gross motor function.

Series [3] relates to 6 Hz psychomotor seizure. Briefly: Mouse 6 Hz model. As to conditions: mice, ip, 0.5 hour, 32 mA. It counts as in vivo. The protocol: Male, Sprague-Dawley rats and CD-1 mice were used for all studies. All animals were allowed ad-lib access to food and water except during experiment. Animals were housed within an animal vivarium maintained under a 12 h light:dark cycle (lights on: 07:00 h), and all experiments were conducted in the animals light phase. For all experiments, animals were habituated to the vivarium for a minimum of 72 h before experimentation. The experimental procedures used in the present investigation were conducted under the Association for Assessment and Accreditation of Laboratory Animal Care (AAALAC) and the Canadian Council on Animal Care (CCAC) guidelines. All compounds were sonicated in 5% Tween 80® in saline or methylcellulose 0.5% (wgt/vol), using MC and sterile water and injected in a dose volume of 5 ml/kg or 10 ml/kg (rat), and 10 ml/kg (mouse). Drugs were administered by either the oral, intraperitoneal or intravenous route. […] Preliminary experiments established that these stimulus parameters elicited a psychomotor seizure, defined as the expression of at least one of the following behaviors: stun/immobility, forelimb clonus, straub tail, vibrissae tremor, lateral head movement in >95% of control animals. Protection was defined as complete absence of all the above behaviors within 20 s of stimulus delivery. The effective dose of compound necessary to protect against psychomotor seizures to 50% of controls (i.e. ED50) was determined by curve fitting program (Prism v.4.02).

For series [4], the system named is gross motor function. Put plainly: Rotorod, mouse (Table 8). The following applies: in vivo, po, Table 8, mouse.
The subject of series [5] is fully kindled (stage 5) seizures, amygdala kindled rat. Briefly: Amygdala kindled rat model. It counts as in vivo. As to conditions: <60 mg/kg i.p. From the text: Amygdala kindling model is an animal model for complex partial seizures, which is the most common type of epilepsy in adults and is often drug resistant.

Consider `CN(CC(N)=O)c1cc(C(F)(F)F)cc(C(F)(F)F)c1` [I(A), 2-[(3,5-Bis-trifluoromethyl-phenyl)-methyl-amino]-acetamide], for which the figures for the ED50 in series [1] and in series [3] were 48 ± 1.1 mg/kg and 62.5 ± 1 mg/kg, respectively. For the same compound, the ED50 at 0.5 hour is greater than 500 mg/kg in series [2] and greater than 160 mg/kg in series [4].
As to `NC(=O)C(F)(F)Oc1cc(Cl)cc(C(F)(F)F)c1` [Compound I(E), 2-[3-chloro-5-(trifluoromethyl)-phenoxy]-2,2-difluoro-acetamide], in series [5], the “suppression of fully kindled (stage 5) seizures compared to vehicle controls” value is reported as “dose related suppression”.

As a reminder, the ED50 is the dose that gives a 50% effect, or the effect in half of the subjects. Low values mean an effect at a small dose, high ones a need for a large dose.
